What all share (type): functional
Test [1] deals with Human immunodeficiency virus 1. Briefly: Antiviral activity against HIV-1 subtype CRF02_AG containing reverse transcriptase Y181C/V35T, V60I, I135V, S162A, K173T, Q174K, N175Y, D177E, T200A, Q207E, R211K, H221Y mutant relative to control.
Test [2] relates to Human immunodeficiency virus 1. In words: Antiviral activity against HIV-1 subtype CRF02_AG containing reverse transcriptase E138A/K20R, V35T, E36D, T39N, V60I, D123N, I135V, S162A, K173T, Q174K, D177E, T200A, Q207E, R211K mutant relative to control.
Test [3] has as its system Human immunodeficiency virus 1. In words: Antiviral activity against HIV-1 subtype CRF02_AG containing reverse transcriptase E138A/K20R, V35T, E36A, T39D, V60I, I135V, T139I, K173A, Q174K, T200E, Q207A, R211K, F214L mutant relative to control.
In test [4] the test system is Human immunodeficiency virus 1. Briefly: Antiviral activity against HIV-1 subtype CRF02_AG containing reverse transcriptase V90I,Y181C/V35T, T39M, P119S, D123E, S162A, E169D, K173T, Q174K, D177E, T200A, Q207E, K219N, V245Q, E248D mutant relative to control.
For test [5], the system named is Human immunodeficiency virus 1. Briefly: Antiviral activity against HIV-1 subtype CRF02_AG containing reverse transcriptase A98G/V35T, V60I, I135L, S162A, K173A, Q174K, D177E, I178M, T200A,Q207E, R211K, V245Q, D250E mutant relative to control.
Test [6] relates to Human immunodeficiency virus 1. Briefly: Antiviral activity against HIV-1 subtype CRF02_AG containing reverse transcriptase V90I,A98G/V35T, E36D, T39K, S48A, I50V, V60I, S68G, I135V, S162A, K173T, Q174K, D177E, G196E, T200A, E203G, Q207D, R211K, Q222P mutant relative to control.
Test [7] concerns Human immunodeficiency virus 1. Briefly: Antiviral activity against HIV-1 subtype CRF02_AG containing reverse transcriptase V90I/V35T, T39M, K46Q, V60I, S68G, D123E, I135V, S162A, K173A, Q174K,D177E, T200A, Q207E, R211K mutant relative to control.
The subject of test [8] is Human immunodeficiency virus 1. Briefly: Antiviral activity against HIV-1 subtype CRF02_AG containing reverse transcriptase K101E/K30E, I31P, V35Q, T39S, E44G, E53G, A62G, N81H, Q91H,I135V,S162A, K173S, Q174R, D177E, V179I, T200I, Q207N, R211K, F214L mutant relative to control.
For test [9], the system named is Human immunodeficiency virus 1. Briefly: Antiviral activity against HIV-1 subtype CRF02_AG containing reverse transcriptase V90I/V35T, E36D, V60I, K122E, D123S, I135V, E138D, S162A, K173T,Q174S, D177E, I178M, V189I, T200A, I202V, Q207E, F214L, V245Q mutant relative to control.

`Cc1cc(C#N)cc(C)c1Oc1nc(Nc2ccc(C#N)cc2)nc(N)c1Br` [ETRAVIRINE]: the “Ratio IC50” value in test [1] is reported as 11.1; in [2], 1.7; in [3], 3; in test [4] it was 3.3; in test [5], 2.9; in test [6] it was 1.2. Also, the “Ratio IC50” value in test [7] is on record as 1.6; in test [8], 1.3; in [9], 1.3.
`Cc1ccnc2c1NC(=O)c1cccnc1N2C1CC1` [NEVIRAPINE]: the “Ratio IC50” value in test [1] is >49.6; in test [2], 0.4; in test [3], 0.5; in test [4], >70.9; in [5], 8.3; in test [6] it was 2.4. The “Ratio IC50” value in test [7] is given as 1.3; in test [8], 2.2; in test [9], 0.7.

(Values after ChEMBL document CHEMBL1212803, “Resistance-associated mutations to etravirine (TMC-125) in antiretroviral-naïve patients infected with non-B HIV-1 subtypes” (2010).)
